According to US20200338519A1, “METHOD FOR PREPARING LIPOSOME” (priority 2015, published 2020):

Assay: Solubility in water and aqueous medium
Format: physicochemical

moexitecan
Solubility in water and an aqueous medium: insoluble or almost insoluble
